Results on eleven compounds are retold here after patent publication US12668830B2, “Pharmaceutical compositions for prevention and/or treatment of infections and antibacterial-induced dysfunctions” (priority 2018, dated 2026).

Entries after “also recorded” stand apart in the source; their conditions may differ. Where two headings read alike, the source gives them in different places.

The test system of assay [1] is MDR clinical isolates E. coli 124, 1027, 1334. Put plainly: 8×8 checkerboard assays against MDR clinical isolates. The format is cell-based, Escherichia coli. The source says: (§1) For each of the three Gram-negative species profiled in this study, the inventors used two broadly used and sequenced strains: Escherichia coli K-12 BW25113 and O8 IAI1, Salmonella enterica serovar typhimurium LT2 and 14028s, Pseudomonas aeruginosa PAO1 and PA14. To validate selected synergies, the inventors profiled 6 MDR clinical Enterobacteriaceae isolates recovered from human patient specimens: E. coli 124, 1027, 1334 and Klebsiella pneumoniae 718, 929 and 980.

For assay [2], the system named is MDR clinical isolates Klebsiella pneumoniae 718, 929 and 980. Described as above. It counts as cell-based. Conditions: MDR K. pneumoniae isolates.
Source text: as §1

The subject of assay [3] is E. coli, S. typhimurium and P. aeruginosa. Kind of assay: Screen across all three species / conservation of drug-drug interactions. As to conditions: for General effect in combinations: conserved interaction network; for Antibacterial activity / growth inhibition of the drug on its own: single drug, in the screen. The format is cell-based. As to the method: Conservation of drug-drug interactions between strains of the same species was assessed by Pearson correlation of the interactions scores ε. For potentially non-conserved drug-drug interactions, the expected fitness distributions of the two strains were taken into account.
To assess the cross-species conservation of drug-drug interactions, the inventors took into account only drug pairs that were probed in all three species. […] Interactions were then compared across the three species. Cases in which an interaction between drugs changed sign across species (conflicting interactions; ˜7% of all interactions) were excluded from the comparative “across-species” Venn diagram (FIG. 3D). Note that with current analysis a given drug-drug interaction may be conserved across species, but not conserved within the species.
Conservation at the single drug level was defined based on shared resistance and sensitivity. A strain was considered sensitive to a given drug if one of the drug concentrations inhibited growth for at least 30%.

Assay [4] has as its system E. coli BW and E. coli iAi1. Put plainly: Benchmarking 8×8 checkerboard assays (Bliss / Loewe additivity). The format is cell-based, Escherichia coli. Conditions: 8×8 checkerboards.
Source text: For combinations between ß-lactams for which high-resolution 8×8 checkerboards with sufficient growth inhibition was available in the validation dataset, Loewe additivity was used to confirm the interactions. Drug-drug interactions were inferred by the shape of the isoboles (lines of equal growth) in two-dimensional drug concentration plots. […] To interpolate IC50 concentrations (or other ICn %), a logistic model was used to fit the growth for each concentration of the first drug across different concentrations of the second drug. The null-hypothesis of this model is represented by the additivity line: a linear isobole connecting equal individual IC's by the two drugs.
As in the screen, growth was assessed based on OD595 nm at early stationary phase for the no drug controls. The time-points used in the screen were used again here for screen strains, whereas 8 hours were used for all E. coli and K. pneumoniae MDR isolates. Fitness was calculated by dividing OD595 nm after single or double drug treatment by no drug treatment for each individual checkerboard. Bliss scores (ε) were calculated for all concentration ratios tested per drug combination, resulting in 49 ε values per drug pair. […] Antagonism was called when the median of the & distribution was above 0.1 or the Q3 was above 0.15. […]
In assay [5] the test system is E. coli (BW25113 wildtype and mutants). Kind of assay: Minimal Inhibitory Concentration (MIC) calculation. The format is cell-based, Escherichia coli. Conditions: for Effect on MIC of chloramphenicol / Effect on MIC of ciprofloxacin: vanillin 150 μg/ml, aspirin 500 μg/ml, E. coli; for MIC: Escherichia coli. The procedure: MICs to all drugs were computed using a logistic fit of growth (OD595 nm for 8 h) over 2-fold serial dilutions of the antibiotic concentrations for all strains used for the high throughput screening and follow-up experiments.

Assay [6] concerns E. coli BW mutants (ΔacrA, respiration-defective). The format is cell-based, Escherichia coli. Conditions: ciprofloxacin 70% MIC. The procedure: Aminoglycosides depend on PMF-energized uptake and thus respiratory complexes; ciprofloxacin is effluxed by AcrAB-TolC. […] Bliss interaction scores (ε) were calculated as in the screen and are represented by the mean and standard deviation across 3-8 replicates. d) Gentamicin and ciprofloxacin antagonism networks for E. coli BW. Nodes represent drugs colored according to targeted cellular process (as FIG. 1a). Full and dashed edges represent antagonistic drug-drug interactions for which intracellular antibiotic concentration was and was not measured, respectively. […] The bars for fluoroquinolones and aminoglycosides account for an extrapolation of antagonistic interactions to all other members of the two classes, assuming they behave the same as ciprofloxacin and gentamicin, respectively.
The kanamycin resistance cassettes was excised when necessary using the plasmid pCP20. The plasmid used for mdfA overexpression was obtained from the mobile E. coli ORF library.

Assay [7] has as its system marA. Kind of assay: Quantitative RT-PCR of marA expression. The format is cell-based, Escherichia coli. Conditions: vanillin 150 μg/ml. As to the method:
Overnight cultures of E. coli BW25113 and the marR deletion mutant were diluted 1:2,000 into 20 ml LB and grown at 37° C. to OD595 nm˜0.2. Aspirin or vanillin were added to the cultures to 500 and 150 μg/ml final concentration respectively (DMSO was added in the control), followed by a 30 min incubation period at 37° C. with agitation. Cells were harvested and RNA extraction was done with the RNeasy Protect Bacteria Mini Kit (Qiagen) according to manufacturer's directions. cDNA was prepared for qRT-PCR using SuperScript™ III Reverse Transcriptase (Thermo Fisher Scientific). marA and mdfA expression levels were estimated by quantitative RT-PCR using SYBR™ Green PCR master mix following the manufacturer's instructions (Thermo Fisher Scientific). Primer sequences for marA and recA are previously described. All experiments were conducted in at least three biological replicates, and relative expression levels were estimated according to Livak et al., using recA expression as reference.

For assay [8], the system named is E. coli BW25113. Put plainly: Intracellular spectinomycin concentration with [3H]-spectinomycin. It counts as cell-based, Escherichia coli. Conditions: vanillin 150 μg/ml; mdfA-dependent. The procedure: Intracellular spectinomycin was quantified by measuring [3H]-spectinomycin (1 μCi/mg; Hartmann Analytic Corp.). Overnight cultures of E. coli BW25113 were diluted 1:1,000 into 1 ml LB with and without vanillin (150 μg/ml) and grown to OD595 nm˜0.5. 50 μg/ml [3H]-spectinomycin:spectinomycin 1:100 was added and the cultures were incubated for 1 h. Cultures were pelleted, washed twice with PBS with 50 μg/ml non-labeled spectinomycin, re suspended in 1% SDS and incubated for 20 min at 85° C. The lysate was mixed with 8 ml liquid scintillation (Perkin Elmer ULTIMA Gold) and counted for 1 min using a Perkin Elmer Tri-Carb 2800TR. Measured radioactivity was normalized to cell number as measured by OD595 nm.

The test system of assay [9] is AcrA. Kind of assay: Immunoblot analysis for AcrA protein quantification. As to conditions: vanillin 150 μg/ml; marA-dependent. The format is cell-based, Escherichia coli. As to the method:
Overnight cultures of E. coli BW25113 and the ΔmarA mutant were diluted 1:1,000 into 50 ml LB containing 500 μg/ml aspirin, 150 μg/ml vanillin or DMSO (drugs solvent control), followed by growth with agitation at 37° C. to OD595 nm˜0.5. Cells were washed in PBS containing corresponding drugs or DMSO, then resuspended to match OD595 nm=1. Cell pellets were resuspended in Laemmli buffer and heated to 95° C. for 3 minutes followed by immunoblot analysis with a-AcrA polyclonal antiserum (gift from K. M. Pos) at 1:200,000 dilution. Primary antiserum was detected using anti-rabbit HRP (A0545 Sigma) at 1:5,000 dilution. Pixel densities of bands were quantified using ImageJ. At least five different biological replicates were blotted and summarized by their mean and standard deviation.
(In general: In western blotting, separated proteins are transferred to a membrane and probed.)

The test system of assay [10] is E. coli MG1655. Kind of assay: Intracellular gentamicin concentration with [3H]-gentamicin. It counts as cell-based, Escherichia coli. Conditions: gentamicin 5 μg/ml plus second drug.
Procedure: Intracellular gentamicin was quantified by measuring [3H]-gentamicin (1 mCi/ml; Hartmann Analytic Corp.), as previously described. Overnight cultures of E. coli MG1655 (ther parental stain of BW25113) were diluted 1:1,000 into 5 ml LB and grown to OD595 nm˜0.1. [3H]-gentamicin was diluted in cold gentamicin to get a 5 mg/ml (0.1 mCi/ml) stock solution, which was then added to the culture at a final concentration of 5 μg/ml (0.1 μCi/ml), simultaneously with the second drug: Berberine (200 μg/ml), Erythromycin (15 μg/ml), Metformin (13000 μg/ml), Procaine (6000 μg/ml), Loperamide (400 μg/ml), Benzalkonium (5 μg/ml). […] Cultures were then incubated at 37° C. on a rotary shaker. At 0, 0.5, 1, 1.5 and 2 h time-points, 500 μl aliquots were removed and applied to a 0.45 μm-pore-size HAWP membrane filter (Millipore) pretreated with 1 ml of unlabeled gentamicin (250 μg/ml). Filters were washed with 10 ml of 1.5% NaCl, placed into counting vials, and dried for 30 min at 52° C. 8 ml of liquid scintillation were then added to the dried filters and vials were incubated overnight at room temperature before being counted for 5 min. Gentamicin uptake efficiency is expressed as total accumulation of gentamicin (ng) per 108 cells, and plotted here for the final timepoint (2 h) for simplicity.

Take `CN(C)C(=O)C(CCN1CCC(O)(c2ccc(Cl)cc2)CC1)(c1ccccc1)c1ccccc1` [Loperamide, loperamide]: in assay [1] (MDR E. coli isolates), the “Effect on activity of colistin” value is recorded as “potentiated” and the “Effect on activity of doxycycline” value is “potentiated”. For the same compound, in assay [2], the “Effect on activity of colistin” value is recorded as “potentiated” and the “Effect on activity of doxycycline” value was “potentiated”. Besides, the “General effect in combinations” value in assay [3] is “general potentiating effect”.

For `CCN1CCN(C(=O)N[C@@H](C(=O)N[C@@H]2C(=O)N3[C@@H]2SC(C)(C)[C@@H]3C(=O)O)c2ccccc2)C(=O)C1=O` [Piperacillin, piperacillin], in [4], the “Growth inhibition reached by single drug” value is “did not reach 50% growth inhibition”.

As to `CC(=O)Oc1ccccc1C(=O)O` [aspirin, acetylsalicylic acid], in assay [5], the “Effect on MIC of chloramphenicol” value is “increase” and the “Effect on MIC of ciprofloxacin” value was “increase”.

Regarding `Cn1c(=O)c2c(ncn2C)n(C)c1=O` [caffeine], the “Antagonism with ciprofloxacin in mutant” value in assay [6] is reported as “resolved”.

As for `COc1cc(/C=C/C(=O)CC(=O)/C=C/c2ccc(O)c(OC)c2)ccc1O` [curcumin], the “Antagonism with ciprofloxacin in mutant” value in assay [6] is “remain largely intact”.

In the case of `C[n+]1ccc(-c2cc[n+](C)cc2)cc1` [paraquat], in assay [6], the “Antagonism with ciprofloxacin in mutant” value is listed as “resolved”.

For `CCN(CC)CCOC(=O)c1ccc(N)cc1` [procaine], in assay [1] (MDR E. coli isolates), the “Effect on activity of doxycycline” value is “resensitized” and the “Effect on activity of fusidic acid” value is reported as “resensitized”. In assay [2], the “Effect on activity of doxycycline” value is listed as “resensitized” and the “Effect on activity of fusidic acid” value is recorded as “resensitized”. Further, in assay [3], the “General effect in combinations” value is “general potentiating effect” and the “Antibacterial activity / growth inhibition of the drug on its own” value was “did not inhibit bacterial growth on its own”.

Regarding `CN[C@@H]1[C@H](O)[C@H](NC)[C@H]2O[C@@]3(O)C(=O)C[C@@H](C)O[C@H]3O[C@@H]2[C@H]1O` [spectinomycin], the “Spectinomycin MIC change upon addition of vanillin” value in assay [5] (100 μg/ml vanillin, wildtype E. coli BW and knockouts of AcrAB-TolC members or MarA) was “decreases”. In addition, the MIC in [5] (BW25113, read-out: MIC of spectinomycin, E. coli, with vanillin (65 μg/ml)) is roughly 15 µg/mL; in [5] (BW25113, read-out: MIC of spectinomycin, largely resistant E. coli, without vanillin), greater than 30 µg/mL. For the same compound, the “Spectinomycin MIC change” value in assay [5] (deletion of mdfA) is “increased”. Also, in assay [5] (overexpression of mdfA (pmdfA) vs E. coli BW, MIC does not change), the “Spectinomycin sensitivity (dose response)” value was “increased spectinomycin sensitivity”. The “Increase of spectinomycin MIC” value in assay [5] (with 500 μg/ml aspirin) was roughly 3 fold. For the same compound, in assay [5] (with vanillin, mild overexpression of mdfA (pmdfA), comparing to MIC of combination in wildtype), the “Decrease of spectinomycin MIC” value is given as roughly 2 fold.

In the case of `COc1cc(C=O)ccc1O` [vanillin], in [7], the marA expression result is reported as “overexpression”. Further, in assay [1] (E. coli MDR isolates), the “Effect on activity of spectinomycin” value was “potentiated”. Moreover, the “Effect on intracellular spectinomycin concentration” value in [8] was “increased; also recorded: accumulation”. In assay [5], the “Effect on MIC of chloramphenicol” value is on record as “increase” and the “Effect on MIC of ciprofloxacin” value is recorded as “increase”. Also, in assay [9], the AcrA protein levels entry was “increases”. The “Antibacterial activity / growth inhibition of the drug on its own” value in assay [3] is reported as “no antibacterial activity”.

Regarding `COc1ccc(CCN(C)CCCC(C#N)(c2ccc(OC)c(OC)c2)C(C)C)cc1OC` (stereo not shown) [verapamil], the “General effect in combinations” value in assay [3] is recorded as “general potentiating effect”.

For benzalkonium, in [6], the “Antagonism with ciprofloxacin in mutant” value was “remain largely intact”. The “Effect on intracellular gentamicin concentration” value in assay [10] is listed as “decreases”.
